From article PMC6302903, “Protein and Chemical Determinants of BL-1249 Action and Selectivity for K2P Channels” (ACS Chemical Neuroscience, 2018)
≈ marks a conversion by molar mass, not a printed value.

Key:
[1] = molecular target: T1, K2P4.1(TRAAK) (Mus musculus, UniProt O88454); experiment: TEVC of K2P4.1(TRAAK) in Xenopus oocytes; assay type: cell-based
T1 construct: expressed in transfected cells; host or cells: Xenopus laevis oocytes injected with mRNA made from pGEMHE/pMO
T1 sequence (O88454 1-398): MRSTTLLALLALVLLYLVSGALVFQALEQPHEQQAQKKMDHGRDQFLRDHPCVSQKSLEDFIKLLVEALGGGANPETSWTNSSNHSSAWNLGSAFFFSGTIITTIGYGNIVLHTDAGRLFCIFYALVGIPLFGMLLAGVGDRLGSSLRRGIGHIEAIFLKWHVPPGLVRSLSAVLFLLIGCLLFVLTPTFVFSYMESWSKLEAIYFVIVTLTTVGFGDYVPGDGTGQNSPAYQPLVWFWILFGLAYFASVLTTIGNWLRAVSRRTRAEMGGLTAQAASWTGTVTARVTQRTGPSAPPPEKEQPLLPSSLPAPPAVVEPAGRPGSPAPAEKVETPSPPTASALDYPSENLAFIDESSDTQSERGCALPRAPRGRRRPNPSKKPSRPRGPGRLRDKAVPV
Description: Constructs for murine K2P channels, including K2P2.1(TREK-1) (Gene ID 16526), K2P10.1(TREK-2) (Gene ID 72258), K2P4.1(TRAAK) (Gene ID 16528), K2P5.1(TASK-2) (Gene ID 16529), K2P3.1(TASK-1) (Gene ID 16527), K2P9.1(TASK-3) (Gene ID 223604), and K2P18.1(TRESK) (Gene ID 332396) in pGEMHE/pMO, were used for Xenopus oocyte experiments as previously described.[10],[26] Murine K2P2.1(TREK-1) (Gene ID 16526) was expressed in HEK-293 cells using a pIRES-EGFP construct as previously described.[26] Murine K2P13.1(THIK-1) (Gene ID 217826) and K2P1.1(TWIK-1) (Gene ID 16525) were cloned into pGEMHE/pMO for use in Xenopus oocytes. Chimeras were designed using EMBOSS Needle pairwise sequence alignment tool[58] to match homologous helices in K2P2.1(TREK-1) and K2P4.1(TRAAK) and were assembled using the Gibson assembly method.[59] Chimera boundaries are Thr152 (TREK-1/AAK M2-C), Trp199 (TREK-1/AAK M3-C), Y272 (TREK-1/AAK M4-C), Thr114 (TRAAK/EK-1 M2-C), Trp161 (TRAAK/EK-1 M3-C), and Tyr234 K2P4.1(TRAAK). All sequences were verified using DNA sequencing.
Xenopus laevis oocytes were harvested in accordance with UCSF IACUC protocol AN129690 and digested in calcium-free ND-96 (96 mM NaCl, 2 mM KCl, 3.8 mM MgCl2) immediately following harvest, as previously described.[6],[10] Digested oocytes were maintained in standard ND96 (96 mM NaCl, 2 mM KCl, 1.8 mM CaCl2, 2 mM MgCl2) with antibiotics (100 units mL^–1 penicillin, 100 μg mL^–1 streptomycin, 50 μg mL^–1 gentimycin). Defolliculated stage V–VI oocytes were injected with 0.2–6.0 ng of mRNA in 50 nL, and currents were recorded 24–48 h after injection. mRNA was synthesized from plasmid DNA using mMessage mMachine Kit (T7 promoter, Ambion, Life Technologies) and purified using RNEasy Kit (Qiagen). Injected oocytes were impaled with two standard microelectrodes (0.2–1.0 MΩ) filled with 3 M KCl and subjected to constant perfusion of standard ND96 during recording. Currents were amplified using the GeneClamp 500B (MDS Analytical Technologies) amplifier controlled by the pClamp software (Molecular Devices). Data were digitized at 1 kHz using Digidata 1332A (MDS Analytical Technologies). For all experiments with small molecules, basal currents were evoked using 1 s long ramps from −150 to +50 mV under constant perfusion of ND96. Once stabilized basal currents were recorded, compounds were perfused at various concentrations in standard ND96 and currents were allowed to increase to stabilization before recording final current. Fold activation upon compound application is expressed as I/I0 (0 mV), derived from the current at 0 mV in the presence of compound divided by the basal current at 0 mV in standard ND96 without compound. Data were analyzed and plotted using Graphpad Prism Version 5 (GraphPad Software, San Diego California USA, www.graphpad.com). […] In the case of BL-1249-acid EC50 estimation, upper bound of I/I0 was set to 20 to account for the strong stimulation of BL-1249-acid.

[2] = molecular target: TREK-1/AAK_T (Mus musculus, UniProt P97438); experiment: TEVC of C-terminal tail swap chimera TREK-1/AAK_T; assay type: cell-based; conditions: Xenopus oocytes
Description: (§1) Given the importance of the C-terminal tail for the BL-1249 response and the fact that the C-terminal tails of K2P2.1(TREK-1) and K2P4.1(TRAAK) vary substantially (17.6% sequence similarity, 13.5% identity), we wondered if these differences could contribute to the different potencies observed in K2P2.1(TREK-1) and K2P4.1(TRAAK) BL-1249 responses. To test this possibility, we made chimeras that swapped the C-terminal tail between K2P2.1(TREK-1) and K2P4.1(TRAAK), TREK-1/AAK_T and TRAAK/EK_T. […] Despite this modest change, it is clear that the C-terminal tail alone is not sufficient to endow the K2P4.1(TRAAK) core with a K2P2.1(TREK-1)-like BL-1249 response. […]
(§2) Xenopus laevis oocytes were harvested in accordance with UCSF IACUC protocol AN129690 and digested in calcium-free ND-96 (96 mM NaCl, 2 mM KCl, 3.8 mM MgCl2) immediately following harvest, as previously described.[6],[10] […] Defolliculated stage V–VI oocytes were injected with 0.2–6.0 ng of mRNA in 50 nL, and currents were recorded 24–48 h after injection. mRNA was synthesized from plasmid DNA using mMessage mMachine Kit (T7 promoter, Ambion, Life Technologies) and purified using RNEasy Kit (Qiagen). […] Once stabilized basal currents were recorded, compounds were perfused at various concentrations in standard ND96 and currents were allowed to increase to stabilization before recording final current. […]

[3] = molecular target: TRAAK/EK-1_T (Mus musculus, UniProt O88454); experiment: TEVC of C-terminal tail swap chimera TRAAK/EK-1_T; assay type: cell-based; conditions: Xenopus oocytes
Description: as §1, §2

[4] = molecular target: T2, K2P13.1(THIK-1) (Mus musculus, UniProt Q8R1P5); experiment: TEVC of K2P13.1(THIK-1) in Xenopus oocytes; assay type: cell-based; conditions: concentrations up to the solubility limit (∼80 μM)
T2 construct: expressed in transfected cells; host or cells: Xenopus laevis oocytes (mRNA injection, pGEMHE/pMO)
Procedure: BL-1249 activates K2P2.1(TREK-1)[18],[40] and K2P10.1(TREK-2),[7] but its effects on other K2P channels have not been characterized. […] In order to test if the original 10 μM assay had missed BL-1249 effects in other K2P channels, we tested concentrations of BL-1249 up to the solubility limit (∼80 μM) against the other K2P subfamily representatives. […]
as §2, with “current. Fold activation upon compound application is expressed as I/I0 (0 mV), derived from the current at 0 mV in the presence of compound divided by the basal current at 0 mV in standard ND96 without compound. Data were analyzed and plotted using Graphpad Prism Version 5 (GraphPad Software, San Diego California USA, www.graphpad.com).” for “current.”

[5] = BL-1249 solubility limit in recording solution; assay type: physicochemical; conditions: standard ND96 recording solution
Procedure: BL-1249 activates K2P2.1(TREK-1)[18],[40] and K2P10.1(TREK-2),[7] but its effects on other K2P channels have not been characterized. […] In order to test if the original 10 μM assay had missed BL-1249 effects in other K2P channels, we tested concentrations of BL-1249 up to the solubility limit (∼80 μM) against the other K2P subfamily representatives.

Chain of TREK-1/AAK_T (P97438 1-292 isoform P97438-2 limits assumed): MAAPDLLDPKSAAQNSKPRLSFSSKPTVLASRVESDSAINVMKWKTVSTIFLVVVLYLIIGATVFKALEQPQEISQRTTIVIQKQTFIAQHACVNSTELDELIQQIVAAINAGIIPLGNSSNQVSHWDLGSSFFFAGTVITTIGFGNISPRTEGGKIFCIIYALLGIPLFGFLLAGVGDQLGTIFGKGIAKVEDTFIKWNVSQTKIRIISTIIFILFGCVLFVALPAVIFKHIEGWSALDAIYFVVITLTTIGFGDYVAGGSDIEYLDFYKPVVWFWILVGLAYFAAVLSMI
T2 sequence (Q8R1P5 whole entry): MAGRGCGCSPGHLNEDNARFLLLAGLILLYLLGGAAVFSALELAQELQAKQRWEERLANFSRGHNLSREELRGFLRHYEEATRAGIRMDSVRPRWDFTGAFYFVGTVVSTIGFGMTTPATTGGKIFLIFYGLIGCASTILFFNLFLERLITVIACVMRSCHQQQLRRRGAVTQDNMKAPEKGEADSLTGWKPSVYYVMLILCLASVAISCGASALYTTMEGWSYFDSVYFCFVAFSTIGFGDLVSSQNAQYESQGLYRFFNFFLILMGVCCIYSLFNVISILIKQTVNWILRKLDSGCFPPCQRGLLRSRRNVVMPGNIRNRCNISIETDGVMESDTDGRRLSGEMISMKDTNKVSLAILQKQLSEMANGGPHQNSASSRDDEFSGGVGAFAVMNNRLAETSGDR

selectivity for K2P2.1(TREK-1) and K2P10.1(TREK-2) over K2P4.1(TRAAK) (EC50) [1]: ~10 fold | K2P4.1(TRAAK) current response ([1]; 10 μM): weakly stimulated | EC50 ([1]; saturation not reached (solubility limit), fit with upper boundary of 15 (I/I0)): 48 ± 10 µM | EC50 [2]: 7.7 ± 0.6 µM | EC50 [3]: 23 ± 4 µM | increase in sensitivity of TRAAK/EK-1_T relative to K2P4.1(TRAAK) [3]: ~2 fold | activation of K2P13.1(THIK-1) [4]: failed to find evidence for activation | solubility [5]: ~80 µM (≈ 23.3 µg/mL)
SMILES: c1ccc(-c2nnn[nH]2)c(Nc2cccc3c2CCCC3)c1 [BL-1249, (5,6,7,8-tetrahydro-naphthalen-1-yl)-[2-(1H-tetrazol-5-yl)-phenyl]-amine]
